Results as given in patent US12221494B2, “Short synthetic peptides and their uses for treating retinal degenerative diseases and/or tissue injuries” (MacKay Memorial Hospital, priority 2019, dated 2025).

Legend:
Neuro-2a cells = assay: Glutamate-induced Neuro-2a cell death (LDH release); assay type: cell-based, mouse
Experimental: Neuro-2a cells were seeded in 48-well culture plates (1.5×10^5 cells/well) for 24 h, and then cultured in 0.5 ml fresh 2% FBS-DMEM medium containing 20 μM of the present peptide (7 μg of 6-mer in 0.5 ml medium) for further 4 h. Subsequently, 100 mM glutamate (from 1 M stock and PBS as solvent) was added to cells for further 6 h. Glutamate-induced cell death was quantitatively assessed by measuring lactate dehydrogenase (LDH) activity released into the culture medium by damaged cells. LDH activity was measured using PicoProbe™ LDH-Cytotoxicity Fluorometric Assay Kit (Catalog #K314-500; BioVision) according to the instruction manuals. LDH activity was estimated using an automated microplate reader (UVmax; Molecular Devices, San Francisco, CA) by measuring the fluorescent product (Ex/Em=535/587 nm).
Briefly, cells were pretreated with the designated peptide (i.e., any of SEQ ID NOs: 2 to 11) for 4 h and then treated with 100 mM glutamate for 6 h. The cell death was detected by a commercial lactate dehydrogenase (LDH) Cytotoxicity Assay Kit. Results are depicted in FIG. 1.

STAT3 = assay: Western blot of STAT3 phosphorylation in C2C12 cells; assay type: cell-based, mouse; conditions: C2C12 myoblast cells, 5 to 20 min after stimulation
Experimental: Cell lysis, fractionation, and SDS-PAGE were conducted in accordance with procedures described previously (Yang Y C et al., BMC Cancer 2007; 7:216). Antibodies used in this study were for Phospho-Stat3 and STAT3 (1:1000-fold dilution). Proteins of interest were detected using the appropriate IgG-HRP secondary antibody (Santa Cruz Biotechnology) and ECL reagent (Amersham Biosciences).

ARPE-19 cells = assay: 4-HNE induced apoptosis of ARPE-19 cells (TUNEL staining); assay type: cell-based, human; conditions: 20 μM peptide pretreatment, 25 μM 4-HNE 24 h
Experimental: FIG. 6. The protective effect of the 6-mer dS on ARPE-19 cells against 4-HNE induced apoptosis. Cells were deprived of serum for 24 h and then pretreated with 20 μM 6-mer dS or solvent prior to exposed with 25 μM 4-HNE for additional 24 h. Apoptosis was determined by TUNEL staining (green dots) and counter-stained with Hoechst 33258 (blue dots). (A) Representative graphs from three independent experiments are shown. (B) The percentage of cell death was quantified by dividing the number of TUNEL-positive cells to a population of 2000 counted cells per condition. TUNEL, terminal deoxynucleotidyl transferase-mediated dUTP nick end-labeling. ^aP<0.00003 versus solvent-treated cells. ^bP<0.0006 versus solvent/4-HNE-treated cells.
Reference is made to FIG. 6, which depicts the protective effect of 6-mer dS or 6-mer dE on 4-hydroxy-2-nonenal (4-HNE) induced apoptosis of ARPE-19 cells. 4-hydroxy-2-nonenal (4-HNE) is a product of lipid oxidation, and is also considered as one of the most formidable reactive aldehydes capable of forming adduct with various cellular targets, particularly proteins involve in redox signaling.

TNF-α mRNA = assay: Hyperosmotic stress-induced TNF-α gene expression in rabbit corneal epithelial cells (qPCR); assay type: cell-based; conditions: 20 μM peptide 6 h, then hyperosmotic medium (463 mOsM) 3 h, solvent 12.8-fold
Experimental: Total RNA was extracted from cells using TRIzol (Invitrogen). Synthesis of cDNA was performed with 1 μg of total RNA at 50° C. for 50 min using oligo(dT) primers and reverse transcriptase (Superscript III; Invitrogen). Briefly, quantification of cDNA was performed in the LightCycler (Roche, Mannheim, Germany) using the DNA Master SYBR Green I kit (Roche) with the following cycling conditions: initial denaturation at 95° C. for 10 min, followed by 40 cycles at 95° C. for 10 s, 60° C. for 10 s, and 72° C. for 10 s and a 5-min terminal incubation at 72° C. The data were calculated with AACt. The expression was then normalized against the expression of glyceraldehyde-3-phosphate dehydrogenase (GAPDH). The PCR primers were mouse Survivin sense, 5′-[…]-3′ (SEQ ID NO: 27), anti-sense, 5′-[…]-3′ (SEQ ID NO: 28) (accession number: NM_001012273.1; PCR product: 136 bp); mouse GAPDH sense, 5′-[…]-3′ (SEQ ID NO: 29), anti-sense, 5′-[…]-3′ (SEQ ID NO: 30) (NM_001289726.1; 149 bp). For analysis rabbit inflammatory gene expression, The PCR primers were rabbit TNF-αsense, 5′-[…]-3′ (SEQ ID NO: 31), anti-sense, 5′-[…]-3′ (SEQ ID NO: 32) (accession number: NM 001082263.1); rabbit IL-1βsense, 5′-[…]-3′(SEQ ID NO: 33), anti-sense, 5′-[…]-3′ (SEQ ID NO: 34) (NM 001082201.1); rabbit GAPDH sense, 5′-[…]-3′ (SEQ ID NO: 35), anti-sense, 5′-[…]-3′ (SEQ ID NO: 36) (accession number:NM 001082253.1). The cycle threshold (Ct) values of the PCR product and a GAPDH (Glyceraldehyde 3-phosphate dehydrogenase) control mRNA were used to calculate relative quantities of mRNA.
Limbal stem epithelial cells (LSEC) were isolated from 6-month-old New Zealand white rabbits and continuously cultivated for 14 days byDMEM/F-12basalmedium based cell-suspension culture to achieve corneal-liked epithelial cell differentiation as previously described (Ho et al., Stem Cells. 2013; 31:1775). […] After 3 h, quantitative real-time PCR was used to estimate HOP-induced Tumor necrosis factor (TNF)-α and nterleukin-1 beta (IL-1β) expressions. […]

survivin mRNA = assay: Real-time qPCR of survivin mRNA in C2C12 cells; assay type: cell-based, mouse; conditions: stimulated for 3 h

## NH2-(D-Ser)-Leu-Gly-Ala-Glu-Gln-COOH (SLGAEQ; HELM PEPTIDE1{[dS].L.G.A.E.Q}$$$$V2.0; SMILES CC(C)C[C@H](NC(=O)[C@H](N)CO)C(=O)NCC(=O)N[C@@H](C)C(=O)N[C@@H](CCC(=O)O)C(=O)N[C@@H](CCC(N)=O)C(=O)O) [6-mer dS]
Neuro-2a cells; Neuro-2a cells, 20 μM peptide pretreatment 4 h, then 100 mM glutamate 6 h, solvent/glutamate control 7.6±0.8%
  glutamate-induced cell death (LDH release into the medium): 1.5±0.5%
Neuro-2a cells; glutamate-induced cell death
  protective effect on Neuro-2a cells (neuroprotective activity), in words: exhibited protective effect on Neuro-2a cells
STAT3
  STAT3 phosphorylation (immunoblot): led to STAT3 phosphorylation
ARPE-19 cells
  4-HNE induced apoptosis (TUNEL), in words: could suppress 4-HNE induced apoptosis
TNF-α mRNA
  mRNA expression of TNF-α, in words: apparently repressed the mRNA expression of TNF-α and IL-1β
Survivin mRNA
  level of survivin mRNA compared to solvent-treated cells: 2.6 fold
